Results on one molecule are retold here after patent US11273124B2, “Antifungal nanoparticles for targeted treatment of fungal infections” (priority 2019, dated 2022).

In brackets after ≈: the same amount, converted by molar mass. Entries after “also recorded” stand apart in the source; their conditions may differ. Numbered stars: 1 amine (or outer) side, 2 acyl side, 3 side chain; on linkers, the order of the positions; unused ones are H or OH. Bridge positions count the residues as written; N and C are the ends. Square brackets hold non-standard residues; d marks the D form. Peptide text beside a SMILES is read from it. * marks the point of attachment. pTerphenylCO(4''-OnC5H11) = CCCCCOc1ccc(-c2ccc(-c3ccc(C(=O)*)cc3)cc2)cc1; Orn(4R-OH,5R-OH) = O=C([C@H](C[C@@H](O)[C@@H](O)N[*:3])N[*:1])[*:2]; hTyr(3S-OH,4S-OH) = N[C@H](C(=O)O)[C@H](O)[C@@H](O)c1ccc(O)cc1; Pro(3S-OH,4S-Me) = C[C@H]1CN[C@H](C(=O)O)[C@H]1O; Hyp = O=C(O)[C@@H]1C[C@@H](O)CN1

Data set [1] deals with Candida albicans 10231 biofilms. Put plainly: Pre-formed biofilm treatment assay (microscopy, CFU, metabolic activity). It counts as cell-based. The settings on record: liposomes at 1.25 mg/mL or equivalent free drug; twenty-four hours. The text has this: (a) A set of representative differential interference contrast microscopy images of Candida albicans 10231 biofilms after twenty-four hours of treatment with 1×, 5×, and 10× anidulafungin loaded liposomes or equivalent free drug. (b) A bar graph showing Candida albicans 10231 biofilm colony-forming units (CFU) twenty-four hours after treatment with 1×, 5×, and 10× anidulafungin loaded liposomes or equivalent free drug (**p<0.01, unpaired two-tailed t-test, n=4). (c) A bar graph showing relative metabolic activity of Candida albicans 10231 biofilm cells twenty-four hours after treatment with 1×, 5×, and 10× anidulafungin loaded liposomes or equivalent free drug (*p<0.05, **p<0.01, ***p<0.001, ****p<0.0001, one-way ANOVA with Tukey's post hoc analysis, n=4). […] of untreated cells are shown. Negative controls lacking fungi were included in each study.
The inventors compared anidulafungin-loaded liposomes with AmBisome®, a commercially-available liposomal amphotericin B, for activity against Candida albicans 10231 biofilms. AmBisome® localizes to the fungal cell wall. See, Adler-Moore & Proffitt, Journal of Antimicrobial Chemotherapy, 49(1), 21-30 (2002) and Walker et al., mBio, 9(1), e02383-17 (2018). The anidulafungin-loaded liposomes performed as AmBisome®, reducing fungal burden by five-fold after only twenty-four hours. See, FIG. 4. […]

In a further data set the test system is Candida parapsilosis. Particulars: cited from earlier work.
The subject of another data set is human cells. Particulars: compared to many other antifungals; cited from earlier work.
The subject of the next data set is Candida albicans. Particulars: cited from earlier work.
The conditions of data set [2]: cited from earlier work.

Regarding `CCCCCOc1ccc(-c2ccc(-c3ccc(C(=O)N[C@H]4C[C@@H](O)[C@@H](O)NC(=O)[C@@H]5[C@@H](O)[C@@H](C)CN5C(=O)[C@H]([C@@H](C)O)NC(=O)[C@H]([C@H](O)[C@@H](O)c5ccc(O)cc5)NC(=O)[C@@H]5C[C@@H](O)CN5C(=O)[C@H]([C@@H](C)O)NC4=O)cc3)cc2)cc1` [Anidulafungin, 1-[(4R,5R) 4,5-dihydroxy-N2-[[4″-(pentyloxy)[1,1′:4′,1″-terphenyl]-4-yl]carbonyl]-L-ornithine] echinocandin B] ({pTerphenylCO(4''-OnC5H11)}-[Orn(4R-OH,5R-OH)]T[Hyp][hTyr(3S-OH,4S-OH)]T[Pro(3S-OH,4S-Me)]; lactam 1-C), in data set [1], the “metabolic activity compared to untreated controls” value was “did not reduce metabolic activity”. Moreover, the figures for the “minimum inhibitory concentration (MIC)” value in the data set on Candida parapsilosis and in the data set on Candida albicans were 4 µg/mL (≈ 3.51 µM) and 0.25 µg/mL (≈ 0.219 µM), respectively. Moreover, the “toxicity to human cells” value with human cells is “reduced toxicity to human cells”. Besides, the solubility in ethanol entry in data set [2] (ethanol) was “slightly soluble”. In addition, the solubility in water result in data set [2] (water) is “practically insoluble; also recorded: not freely soluble”.
